A value given as a limit tells only on which side of the number the result lay.

The target of the test is T1, Human CaV2.2 channels (Homo sapiens, UniProt Q00975).
T1 construct: expressed in transfected cells
T1 sequence (Q00975 whole entry): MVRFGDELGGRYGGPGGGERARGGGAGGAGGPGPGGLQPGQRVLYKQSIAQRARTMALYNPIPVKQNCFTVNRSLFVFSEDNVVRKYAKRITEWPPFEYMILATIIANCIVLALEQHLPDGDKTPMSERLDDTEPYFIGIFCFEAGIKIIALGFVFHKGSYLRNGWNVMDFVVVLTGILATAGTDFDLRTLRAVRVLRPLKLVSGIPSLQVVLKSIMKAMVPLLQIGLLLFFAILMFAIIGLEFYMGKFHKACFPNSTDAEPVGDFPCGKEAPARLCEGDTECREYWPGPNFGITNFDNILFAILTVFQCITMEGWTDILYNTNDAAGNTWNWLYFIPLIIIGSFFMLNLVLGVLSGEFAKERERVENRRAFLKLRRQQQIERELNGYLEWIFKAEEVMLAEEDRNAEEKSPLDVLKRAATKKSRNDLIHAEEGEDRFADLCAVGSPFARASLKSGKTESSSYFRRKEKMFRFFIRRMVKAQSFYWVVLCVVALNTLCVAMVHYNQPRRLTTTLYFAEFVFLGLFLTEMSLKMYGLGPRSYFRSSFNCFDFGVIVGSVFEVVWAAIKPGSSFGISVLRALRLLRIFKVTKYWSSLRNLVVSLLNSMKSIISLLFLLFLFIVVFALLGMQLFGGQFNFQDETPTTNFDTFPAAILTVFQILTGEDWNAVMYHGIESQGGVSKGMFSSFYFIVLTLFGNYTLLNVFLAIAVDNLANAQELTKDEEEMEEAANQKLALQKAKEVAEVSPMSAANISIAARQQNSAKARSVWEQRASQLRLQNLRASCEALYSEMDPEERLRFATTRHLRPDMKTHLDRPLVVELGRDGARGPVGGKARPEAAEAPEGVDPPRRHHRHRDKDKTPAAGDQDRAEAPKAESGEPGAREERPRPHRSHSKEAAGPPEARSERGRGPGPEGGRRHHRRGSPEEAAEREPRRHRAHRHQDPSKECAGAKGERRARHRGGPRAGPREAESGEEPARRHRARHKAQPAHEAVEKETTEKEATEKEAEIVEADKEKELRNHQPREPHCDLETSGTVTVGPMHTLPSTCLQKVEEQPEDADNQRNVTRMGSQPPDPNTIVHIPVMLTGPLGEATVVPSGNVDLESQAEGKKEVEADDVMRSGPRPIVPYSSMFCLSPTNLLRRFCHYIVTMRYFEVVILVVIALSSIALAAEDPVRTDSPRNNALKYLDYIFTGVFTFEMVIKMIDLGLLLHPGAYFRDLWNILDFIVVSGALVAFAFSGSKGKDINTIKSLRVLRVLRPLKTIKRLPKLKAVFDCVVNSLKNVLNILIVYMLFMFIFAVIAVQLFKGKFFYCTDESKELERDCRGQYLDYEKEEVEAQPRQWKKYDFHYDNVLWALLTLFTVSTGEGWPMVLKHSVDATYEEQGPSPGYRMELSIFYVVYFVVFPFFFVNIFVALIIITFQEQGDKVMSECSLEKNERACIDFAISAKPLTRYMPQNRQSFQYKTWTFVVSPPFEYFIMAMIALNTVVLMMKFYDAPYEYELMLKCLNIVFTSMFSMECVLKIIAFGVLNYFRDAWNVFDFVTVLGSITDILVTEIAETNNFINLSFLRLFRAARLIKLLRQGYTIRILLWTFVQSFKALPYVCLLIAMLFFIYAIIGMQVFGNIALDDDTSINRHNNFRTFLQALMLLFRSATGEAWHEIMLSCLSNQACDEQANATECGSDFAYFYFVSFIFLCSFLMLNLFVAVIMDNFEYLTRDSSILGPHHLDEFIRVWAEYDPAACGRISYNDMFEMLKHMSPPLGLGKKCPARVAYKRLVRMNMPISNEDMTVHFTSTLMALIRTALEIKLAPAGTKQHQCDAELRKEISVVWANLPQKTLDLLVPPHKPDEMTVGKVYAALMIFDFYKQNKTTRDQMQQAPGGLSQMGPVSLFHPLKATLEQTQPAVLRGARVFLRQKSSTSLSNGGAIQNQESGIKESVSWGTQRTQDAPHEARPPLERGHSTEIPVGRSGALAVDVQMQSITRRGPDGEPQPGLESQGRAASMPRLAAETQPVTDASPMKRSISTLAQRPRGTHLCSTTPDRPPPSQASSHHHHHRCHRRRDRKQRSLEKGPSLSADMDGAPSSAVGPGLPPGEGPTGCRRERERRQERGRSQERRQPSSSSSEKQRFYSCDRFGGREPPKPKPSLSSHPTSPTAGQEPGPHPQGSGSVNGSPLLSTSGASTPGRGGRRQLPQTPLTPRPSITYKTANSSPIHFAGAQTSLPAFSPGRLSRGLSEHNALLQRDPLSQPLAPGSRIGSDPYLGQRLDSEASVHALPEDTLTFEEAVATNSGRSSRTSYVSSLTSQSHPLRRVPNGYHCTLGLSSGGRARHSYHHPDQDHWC
T1 sequence (P54289 25-1103, further chain): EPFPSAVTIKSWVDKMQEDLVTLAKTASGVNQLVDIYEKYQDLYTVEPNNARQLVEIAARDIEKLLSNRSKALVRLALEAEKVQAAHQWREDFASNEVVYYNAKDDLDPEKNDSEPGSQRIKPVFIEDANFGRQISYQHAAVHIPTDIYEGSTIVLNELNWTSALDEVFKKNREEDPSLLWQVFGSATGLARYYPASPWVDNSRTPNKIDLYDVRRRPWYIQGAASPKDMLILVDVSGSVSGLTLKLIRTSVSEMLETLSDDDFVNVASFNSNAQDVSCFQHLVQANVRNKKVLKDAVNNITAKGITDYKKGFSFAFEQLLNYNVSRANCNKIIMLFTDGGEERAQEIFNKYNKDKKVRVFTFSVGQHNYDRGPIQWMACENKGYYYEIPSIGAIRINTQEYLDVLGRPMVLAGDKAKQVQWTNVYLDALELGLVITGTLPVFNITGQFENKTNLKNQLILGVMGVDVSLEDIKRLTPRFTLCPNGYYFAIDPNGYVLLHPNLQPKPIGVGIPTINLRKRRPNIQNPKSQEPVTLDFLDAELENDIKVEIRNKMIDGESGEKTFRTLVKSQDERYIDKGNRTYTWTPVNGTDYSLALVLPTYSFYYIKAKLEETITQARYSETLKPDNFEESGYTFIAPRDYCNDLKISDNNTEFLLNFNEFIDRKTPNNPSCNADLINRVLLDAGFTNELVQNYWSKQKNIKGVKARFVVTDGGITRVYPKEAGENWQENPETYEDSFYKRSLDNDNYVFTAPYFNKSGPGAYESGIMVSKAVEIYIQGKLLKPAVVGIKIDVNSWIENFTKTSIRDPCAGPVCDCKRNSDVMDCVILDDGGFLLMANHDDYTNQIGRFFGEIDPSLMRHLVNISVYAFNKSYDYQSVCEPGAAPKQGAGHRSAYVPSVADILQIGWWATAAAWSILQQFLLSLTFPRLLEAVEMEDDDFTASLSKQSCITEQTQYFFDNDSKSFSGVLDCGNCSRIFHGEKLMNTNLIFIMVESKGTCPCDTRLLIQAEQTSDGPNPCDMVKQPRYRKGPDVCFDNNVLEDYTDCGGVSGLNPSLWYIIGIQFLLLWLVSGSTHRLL
T1 sequence (P54284 whole entry, further chain): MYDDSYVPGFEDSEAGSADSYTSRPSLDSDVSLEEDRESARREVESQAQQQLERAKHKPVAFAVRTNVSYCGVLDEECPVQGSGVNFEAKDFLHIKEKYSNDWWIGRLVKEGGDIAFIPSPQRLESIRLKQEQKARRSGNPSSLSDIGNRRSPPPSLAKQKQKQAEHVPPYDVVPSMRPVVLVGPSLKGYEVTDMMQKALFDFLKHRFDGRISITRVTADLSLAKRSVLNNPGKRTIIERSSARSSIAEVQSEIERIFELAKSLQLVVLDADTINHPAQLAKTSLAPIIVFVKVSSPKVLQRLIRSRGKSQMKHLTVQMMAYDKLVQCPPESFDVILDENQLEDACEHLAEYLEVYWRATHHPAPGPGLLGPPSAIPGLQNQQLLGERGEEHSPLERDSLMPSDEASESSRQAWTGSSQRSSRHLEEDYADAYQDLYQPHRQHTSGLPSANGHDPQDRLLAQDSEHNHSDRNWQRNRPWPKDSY
The test is described as follows: Fluorescent assay for CaV2.2 channels using potassium depolarization to induce channel opening (FLIPR, Fluo-4). The conditions noted are these: 3 μM test compound, 30 mM KCl, HEK293 cells stably expressing human CaV2.2; read-out: %-Inhib (CaV2.2) @3 μM @30 mM KCl. The test is classed as cell-based. In outline: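 Channel block was read as the baseline-normalized peak Ca²⁺ signal (Fluo-4, 480/535 nm) after a high-KCl depolarizing addition (210 mM KCl buffer). Beforehand, compound sat 15 min at 25 °C on HEK293 cells carrying human CaV2.2, α2δ/β subunits and Kir2.3, in pH 7.4 buffer with 30 mM KCl.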
Regarding `Cc1c(-c2ccc(F)c(Cl)c2)c(C(=O)N2CCOCC2)n(Cc2ccccc2)c1C(F)(F)F` [SC-104, [1-Benzyl-3-(3-chloro-4-fluoro-phenyl)-4-methyl-5-(trifluoromethyl)-1H-pyrrol-2-yl]-morpholin-4-yl-methanone], the inhibition at 3 µM was 75 to 95%. With `Cc1c(-c2ccc(Cl)cc2)c(C(=O)N(C)Cc2cnccn2)n(Cc2ccccc2)c1C(F)(F)F` [SC-146, 1-Benzyl-3-(4-chlorophenyl)-N,4-dimethyl-N-(pyrazin-2-yl-methyl)-5-(trifluoromethyl)-1H-pyrrole-2-carboxylic acid amide] the figure was 75 to 95%; with `Cc1c(-c2ccc(Cl)cc2)c(C(=O)N(C)Cc2ccnc(N(C)C)n2)n(Cc2ccccc2)c1C(F)(F)F` [SC-147, 1-Benzyl-3-(4-chlorophenyl)-N-[(2-dimethylamino-pyrimidin-4-yl)-methyl]-N,4-dimethyl-5-(trifluoromethyl)-1H-pyrrole-2-carboxylic acid amide], 75 to 95%. For the molecule `Cc1c(-c2ccc(OC(F)(F)F)cc2)c(C(=O)N2CC(F)(F)C2)n(Cc2ccccc2)c1C(F)(F)F` [SC-97, [1-Benzyl-4-methyl-5-(trifluoromethyl)-3-[4-(trifluoromethyloxy)-phenyl]-1H-pyrrol-2-yl]-(3,3-difluoro-azetidin-1-yl)-methanone], the inhibition at 3 µM is 40 to 75%.

As for `Cc1c(-c2ccc(OC(F)(F)F)cc2)c(C(=O)N2CC(O)C2)n(Cc2ccccc2)c1C(F)(F)F` [SC-239, [1-Benzyl-4-methyl-5-(trifluoromethyl)-3-[4-(trifluoromethyloxy)-phenyl]-1H-pyrrol-2-yl]-(3-hydroxy-azetidin-1-yl)-methanone], the inhibition at 3 µM lay in the range of 75 to 95%.

On to `Cc1c(-c2ccc(Cl)cc2)c(C(=O)N2CCOCC2)n(Cc2ccccc2)c1C(F)(F)F` [SC-03, [1-Benzyl-3-(4-chlorophenyl)-4-methyl-5-(trifluoromethyl)-1H-pyrrol-2-yl]-morpholin-4-yl-methanone], for which the inhibition at 3 µM was more than 95%. In the case of `COC1(CNC(=O)c2c(-c3ccc(Cl)cc3)c(C)c(C(F)(F)F)n2Cc2ccccc2)CC1` [SC-36, 1-Benzyl-3-(4-chlorophenyl)-N-[(1-methoxy-cyclopropyl)-methyl]-4-methyl-5-(trifluoromethyl)-1H-pyrrole-2-carboxylic acid amide], the inhibition at 3 µM is more than 95%. Take `Cc1c(-c2ccc(F)cc2)c(C(=O)N(C)CC(C)(C)CO)n(Cc2ccccc2)c1C(F)(F)F` [SC-218, 1-Benzyl-3-(4-fluorophenyl)-N-(3-hydroxy-2,2-dimethyl-propyl)-N,4-dimethyl-5-(trifluoromethyl)-1H-pyrrole-2-carboxylic acid amide]: the inhibition at 3 µM is more than 95%. On to `CN(CC(C)(C)CN)C(=O)c1c(-c2ccc(Cl)cc2)cc(C(F)(F)F)n1Cc1ccccc1` [SC-188, N-(3-Amino-2,2-dimethyl-propyl)-1-benzyl-3-(4-chlorophenyl)-N-methyl-5-(trifluoromethyl)-1H-pyrrole-2-carboxylic acid amide], for which the inhibition at 3 µM was in the range of 75 to 95%.

`CN(CC1CCC[C@H]1O)C(=O)c1c(-c2ccc(Cl)cc2)cc(C(F)(F)F)n1Cc1ccccc1` (stereo partly drawn) [SC-200, 1-Benzyl-3-(4-chlorophenyl)-N-[[(2R)-2-hydroxy-cyclopentyl]-methyl]-N-methyl-5-(trifluoromethyl)-1H-pyrrole-2-carboxylic acid amide]: the inhibition at 3 µM was more than 95%. As for `Cc1c(-c2ccc(Cl)cc2)c(C(=O)N(C)C2(C(N)=O)CC2)n(Cc2ccccc2)c1C(F)(F)F` [SC-49, 1-Benzyl-N-(1-carbamoyl-cyclopropyl)-3-(4-chlorophenyl)-N,4-dimethyl-5-(trifluoromethyl)-1H-pyrrole-2-carboxylic acid amide], the inhibition at 3 µM was more than 95%.

In the case of `CC(=O)NCCN(C)C(=O)c1c(-c2ccc(Cl)cc2)c(C)c(C(F)(F)F)n1Cc1ccccc1` [SC-37, N-(2-Acetylamino-ethyl)-1-benzyl-3-(4-chlorophenyl)-N,4-dimethyl-5-(trifluoromethyl)-1H-pyrrole-2-carboxylic acid amide], the inhibition at 3 µM is more than 95%.

As for `Cc1c(-c2ccc(Cl)cc2)c(C(=O)N2CCC(CO)C2)n(Cc2ccccc2)c1C(F)(F)F` (centres unmarked) [SC-117, [1-Benzyl-3-(4-chlorophenyl)-4-methyl-5-(trifluoromethyl)-1H-pyrrol-2-yl]-[3-(hydroxymethyl)-pyrrolidin-1-yl]-methanone], the inhibition at 3 µM was in the range of 75 to 95%. The same measure for `CN(CC(C)(CO)CO)C(=O)c1c(-c2ccc(Cl)cc2)cc(C(F)(F)F)n1Cc1ccccc1` [SC-183, 1-Benzyl-3-(4-chlorophenyl)-N-[3-hydroxy-2-(hydroxymethyl)-2-methyl-propyl]-N-methyl-5-(trifluoromethyl)-1H-pyrrole-2-carboxylic acid amide]: more than 95%. The same measure for `CN(CC1CC1)C(=O)c1c(-c2ccc(Cl)cc2)cc(C(F)(F)F)n1Cc1ccccc1` [SC-76, 1-Benzyl-3-(4-chlorophenyl)-N-(cyclopropyl-methyl)-N-methyl-5-(trifluoromethyl)-1H-pyrrole-2-carboxylic acid amide]: 75 to 95%; for `Cc1cc(CN(C)C(=O)c2c(-c3ccc(Cl)cc3)cc(C(F)(F)F)n2Cc2ccccc2)on1` [SC-204, 1-Benzyl-3-(4-chlorophenyl)-N-methyl-N-[(3-methyl-isoxazol-5-yl)-methyl]-5-(trifluoromethyl)-1H-pyrrole-2-carboxylic acid amide]: 75 to 95%. For the molecule `Cc1c(-c2ccc(Cl)cc2)c(C(=O)N(C)C(C)CS(C)(=O)=O)n(Cc2ccccc2)c1C(F)(F)F` (centres unmarked) [SC-141, 1-Benzyl-3-(4-chlorophenyl)-N,4-dimethyl-N-(1-methyl-2-methylsulfonyl-ethyl)-5-(trifluoromethyl)-1H-pyrrole-2-carboxylic acid amide], the inhibition at 3 µM was more than 95%. In the case of `Cc1c(-c2ccc(F)cc2)c(C(=O)N(C)CCS(C)(=O)=O)n(Cc2ccccc2)c1C(F)(F)F` [SC-219, 1-Benzyl-3-(4-fluorophenyl)-N,4-dimethyl-N-(2-methylsulfonyl-ethyl)-5-(trifluoromethyl)-1H-pyrrole-2-carboxylic acid amide], the inhibition at 3 µM was more than 95%. With `Cc1c(-c2ccc(OC(F)(F)F)cc2)c(C(=O)N(C)CC(C)(C)CO)n(Cc2ccccc2)c1C(F)(F)F` [SC-235, 1-Benzyl-N-(3-hydroxy-2,2-dimethyl-propyl)-N,4-dimethyl-5-(trifluoromethyl)-3-[4-(trifluoromethyloxy)-phenyl]-1H-pyrrole-2-carboxylic acid amide] the figure was 75 to 95%; with `Cc1c(-c2ccc(Cl)cc2F)c(C(=O)N2CC(O)C2)n(Cc2ccccc2)c1C(F)(F)F` [SC-154, [1-Benzyl-3-(4-chloro-2-fluoro-phenyl)-4-methyl-5-(trifluoromethyl)-1H-pyrrol-2-yl]-(3-hydroxy-azetidin-1-yl)-methanone], 75 to 95%. Consider `Cc1c(-c2ccc(Cl)cc2)c(C(=O)N(C)CCC(C)(C)O)n(Cc2ccccc2)c1C(F)(F)F` [SC-113, 1-Benzyl-3-(4-chlorophenyl)-N-(3-hydroxy-3-methyl-butyl)-N,4-dimethyl-5-(trifluoromethyl)-1H-pyrrole-2-carboxylic acid amide], for which the inhibition at 3 µM was more than 95%. Turning to `Cc1c(-c2ccc(F)c(Cl)c2)c(C(=O)N2CC(O)C2)n(Cc2ccccc2)c1C(F)(F)F` [SC-255, [1-Benzyl-3-(3-chloro-4-fluoro-phenyl)-4-methyl-5-(trifluoromethyl)-1H-pyrrol-2-yl]-(3-hydroxy-azetidin-1-yl)-methanone], the inhibition at 3 µM fell in the range of 40 to 75%.

For `CN(Cc1cnc(N(C)C)nc1)C(=O)c1c(-c2ccc(Cl)cc2)cc(C(F)(F)F)n1Cc1ccccc1` [SC-216, 1-Benzyl-3-(4-chlorophenyl)-N-[(2-dimethylamino-pyrimidin-5-yl)-methyl]-N-methyl-5-(trifluoromethyl)-1H-pyrrole-2-carboxylic acid amide], the inhibition at 3 µM was in the range of 75 to 95%. The same measure for `Cc1c(-c2ccc(F)cc2)c(C(=O)N(C)C2CC2)n(Cc2ccccc2)c1C(F)(F)F` [SC-221, 1-Benzyl-N-cyclopropyl-3-(4-fluorophenyl)-N,4-dimethyl-5-(trifluoromethyl)-1H-pyrrole-2-carboxylic acid amide]: more than 95%; for `CN(CC(C)(C)C)C(=O)c1c(-c2ccc(Cl)cc2)cc(C(F)(F)F)n1Cc1ccc(F)cc1` [SC-261, 3-(4-Chlorophenyl)-N-(2,2-dimethyl-propyl)-1-[(4-fluorophenyl)-methyl]-N-methyl-5-(trifluoromethyl)-1H-pyrrole-2-carboxylic acid amide]: 75 to 95%. As for `Cc1c(-c2ccc(Cl)cc2)c(C(=O)N(C)CC2CCOCC2)n(Cc2ccccc2)c1C(F)(F)F` [SC-21, 1-Benzyl-3-(4-chlorophenyl)-N,4-dimethyl-N-(tetrahydro-pyran-4-yl-methyl)-5-(trifluoromethyl)-1H-pyrrole-2-carboxylic acid amide], the inhibition at 3 µM is more than 95%. The same measure for `O=C(c1c(-c2ccc(Cl)cc2)cc(C(F)(F)F)n1Cc1ccccc1)N1CCS(=O)(=O)CC1` [SC-196, [1-Benzyl-3-(4-chlorophenyl)-5-(trifluoromethyl)-1H-pyrrol-2-yl]-(1,1-dioxo-[1,4]thiazinan-4-yl)-methanone]: more than 95%; for `Cc1c(-c2ccc(Cl)cc2)c(C(=O)N(C)CC(C)(C)CN(C)CCN2CCCC2)n(Cc2ccccc2)c1C(F)(F)F` [SC-139, 1-Benzyl-3-(4-chlorophenyl)-N-[2,2-dimethyl-3-[methyl-(2-pyrrolidin-1-yl-ethyl)-amino]-propyl]-N,4-dimethyl-5-(trifluoromethyl)-1H-pyrrole-2-carboxylic acid amide]: more than 95%.

Consider `Cc1c(-c2ccc(Cl)cc2)c(C(=O)N2CC(S(C)(=O)=O)C2)n(Cc2ccccc2)c1C(F)(F)F` [SC-137, [1-Benzyl-3-(4-chlorophenyl)-4-methyl-5-(trifluoromethyl)-1H-pyrrol-2-yl]-(3-methylsulfonyl-azetidin-1-yl)-methanone], for which the inhibition at 3 µM was in the range of 75 to 95%.

The values are drawn from patent US9302988B2, “Fluoromethyl-substituted pyrrole carboxamides” (GRÜNENTHAL GMBH, priority 2012, dated 2016).
